What was measured:
[1] = Compatibility study API-excipient / API-API (total impurities by HPLC); format: physicochemical
Description: The column used was the Gemini C18 column (5.0 μm, 250 mm). […] The mobile phase was filtered through a 0.4 μm polypropylene membrane filter and degassed via sonication. […] The column and sample thermostats were set to 35 °C and 5 °C, respectively. […] The compatibility study was performed using appearance and impurity tests to confirm the interaction between each API and the excipient. Each API was mixed with mannitol, microcrystalline cellulose, lactose, silicified microcrystalline cellulose, calcium hydrogen phosphate anhydrous, pregelatinized starch, sodium starch glycolate, crospovidone, sodium croscarmellose, magnesium stearate, colloidal silicon dioxide, sodium stearyl fumarate, hydroxypropyl cellulose, calcium hydroxide, citric acid, and OPADRY II pink in a 1:1 (w/w) ratio and put into each clear glass vial.

[2] = Equilibrium solubility test (HPLC); settings: thermodynamic from solid
Description: The column used was an Agilent C18 column (5.0 μm, 4.6 × 150 mm). The mobile phase and diluted solution of the content and dissolution studies analyses were prepared with 0.5% triethylamine buffer (v/v, pH 6.8 adjusted with 85% phosphoric acid) and acetonitrile at a ratio of 7:3 (v/v). The mobile phase was filtered through a 0.45-μm polypropylene membrane filter and degassed via sonication. The wavelength, flow rate, and injection volume were set to 205 nm, 1.5 mL/min, and 20 μL, respectively. In the case of the content and dissolution studies, the mobile phase was constantly flowed for 18 min via an isocratic elution method and analyzed.
The equilibrium solubility test was used to calculate the input amount through the apparent solubility test result, and an excess of the API was placed in each beaker and stirred at 400 rpm. At 0, 12, and 24 h immediately after the overdose, 2 mL samples were taken and filtered through a 0.45-μm regenerated cellulose syringe filter. The supernatant of the filtered solution was taken and diluted with a content analysis diluted solution. […] A calibration test was performed, and the sample was diluted with a diluted solution and prepared at a concentration of 0.05–1 mg/mL.

[3] = Stability study of the APIs in pH buffers (total impurity by HPLC); format: physicochemical
Description: The column used was the Gemini C18 column (5.0 μm, 250 mm). Mobile phase A of the impurity study was prepared with KH2PO4 buffer (v/v, solution adjusted to pH 6.0 with 1 M KOH): acetonitrile: methanol = 85: 10: 5 (v/v/v), and mobile phase B was prepared with 90% acetonitrile. The mobile phase was filtered through a 0.4 μm polypropylene membrane filter and degassed via sonication. The diluted solution was prepared with KH2PO4 buffer (v/v, solution adjusted to pH 6.0 with 1 M KOH) and acetonitrile at a ratio of 7:3 (v/v). The wavelength, flow rate, and injection volume were set to 220 nm, 1.0 mL/min, and 20 μL, respectively. The column and sample thermostats were set to 35 °C and 5 °C, respectively. In the case of the impurity study, the analysis was performed by changing the composition of the mobile phase for 80 min using a gradient elution method for 80 min.
[…] […] We performed a calibration test, and the sample was diluted with a diluted solution and prepared at a concentration of 0.05–1 mg/mL.

[4] = oral; cited from earlier work
[5] = cited from earlier work

N[C@@H](CC(=O)N1CCn2c(nnc2C(F)(F)F)C1)Cc1cc(F)c(F)cc1F.O.O=P(O)(O)O [Sitagliptin, (R)-3-Amino-1-(3-(trifluoromethyl)-5,6-dihydro-[1,2,4]triazolo[4,3-a]pyrazin-7(8H)-yl)-4-(2,4,5-trifluorophenyl)butan-1-one phosphate monohydrate]
2670 µg/mL: solubility thermodynamic at 12 h ([2]; pH 6.8, aqueous buffer)
1510 µg/mL: solubility thermodynamic at 12 h ([2]; pH 5, aqueous buffer)
1420 µg/mL: solubility thermodynamic at 12 h ([2]; pH 8, aqueous buffer) | solubility thermodynamic at 12 h ([2]; water) | solubility thermodynamic at 24 h ([2]; water)
1520 µg/mL: solubility thermodynamic at 24 h ([2]; pH 5, aqueous buffer)
0.03%: Total Impurity ([3]; pH 2.0 buffer, 20 ± 2 °C/60 ± 5% RH, 3 Days) | Total Impurity ([3]; pH 5.0 buffer, 20 ± 2 °C/60 ± 5% RH, 7 Days) | Total Impurity ([3]; pH 5.0 buffer, 40 ± 2 °C/75 ± 5% RH, 7 Days) | Total Impurity ([3]; pH 5.0 buffer, Initial) | Total Impurity ([3]; pH 6.0 buffer, 20 ± 2 °C/60 ± 5% RH, 7 Days) | Total Impurity ([3]; pH 6.8 buffer, 40 ± 2 °C/75 ± 5% RH, 7 Days) | Total Impurity ([3]; pH 7.0 buffer, 20 ± 2 °C/60 ± 5% RH, 7 Days) | Total Impurity ([3]; pH 7.0 buffer, 40 ± 2 °C/75 ± 5% RH, 7 Days) | Total Impurity ([3]; pH 8.0 buffer, 20 ± 2 °C/60 ± 5% RH, 7 Days) | Total Impurity ([3]; pH 8.0 buffer, 40 ± 2 °C/75 ± 5% RH, 7 Days) | Total Impurity ([3]; pH 9.0 buffer, 40 ± 2 °C/75 ± 5% RH, 7 Days) | Total Impurity ([3]; pH 10.0 buffer, 20 ± 2 °C/60 ± 5% RH, 7 Days) | Total Impurity ([3]; pH 10.0 buffer, 40 ± 2 °C/75 ± 5% RH, 7 Days) | Total Impurity ([3]; pH 11.0 buffer, 20 ± 2 °C/60 ± 5% RH, 7 Days) | Total Impurity ([3]; pH 12.0 buffer, 20 ± 2 °C/60 ± 5% RH, 7 Days) | Total Impurity ([3]; pH 12.0 buffer, 40 ± 2 °C/75 ± 5% RH, 7 Days) | Total Impurity ([3]; pH 12.0 buffer, Initial)
1600 µg/mL: solubility thermodynamic at 24 h ([2]; pH 12, aqueous buffer)
1440 µg/mL: solubility thermodynamic at 12 h ([2]; pH 11, aqueous buffer) | solubility thermodynamic at 24 h ([2]; pH 11, aqueous buffer)
0.59%: Total Impurity ([3]; pH 2.0 buffer, 40 ± 2 °C/75 ± 5% RH, 7 Days)
2760 µg/mL: solubility thermodynamic at 12 h ([2]; pH 7, aqueous buffer) | solubility thermodynamic at 24 h ([2]; pH 7, aqueous buffer)
Class 1: biopharmaceutics classification system (BCS) [5]
970 µg/mL: solubility thermodynamic at 24 h ([2]; pH 10, aqueous buffer)
approximately 87%: bioavailability [4]
5.64%: Total Impurity ([3]; pH 3.0 buffer, 40 ± 2 °C/75 ± 5% RH, 7 Days)
1940 µg/mL: solubility thermodynamic at 12 h ([2]; pH 1.2, aqueous buffer) | solubility thermodynamic at 24 h ([2]; pH 1.2, aqueous buffer)
0.14%: Total Impurity ([3]; pH 1.2 buffer, 40 ± 2 °C/75 ± 5% RH, 7 Days)
0.37%: Total Impurity ([3]; pH 3.0 buffer, 40 ± 2 °C/75 ± 5% RH, 3 Days)
1610 µg/mL: solubility thermodynamic at 12 h ([2]; pH 4, aqueous buffer) | solubility thermodynamic at 24 h ([2]; pH 4, aqueous buffer) | solubility thermodynamic at 12 h ([2]; pH 12, aqueous buffer)
1500 µg/mL: solubility thermodynamic at 12 h ([2]; pH 9, aqueous buffer) | solubility thermodynamic at 24 h ([2]; pH 9, aqueous buffer)
0.02%: Total Impurity ([3]; pH 1.2 buffer, 40 ± 2 °C/75 ± 5% RH, 3 Days) | Total Impurity ([3]; pH 1.2 buffer, Initial) | Total Impurity ([3]; pH 2.0 buffer, Initial) | Total Impurity ([3]; pH 4.0 buffer, 40 ± 2 °C/75 ± 5% RH, 7 Days) | Total Impurity ([3]; pH 4.0 buffer, Initial) | Total Impurity ([3]; pH 10.0 buffer, Initial)
1.42%: Total Impurity ([3]; pH 3.0 buffer, 20 ± 2 °C/60 ± 5% RH, 7 Days)
1430 µg/mL: solubility thermodynamic at 24 h ([2]; pH 8, aqueous buffer)
0.06%: Total Impurity ([3]; pH 6.0 buffer, 40 ± 2 °C/75 ± 5% RH, 7 Days) | Total Impurity ([3]; pH 6.8 buffer, 20 ± 2 °C/60 ± 5% RH, 7 Days) | Total Impurity ([3]; pH 8.0 buffer, Initial)
1160 µg/mL: solubility thermodynamic at 12 h ([2]; pH 6, aqueous buffer) | solubility thermodynamic at 24 h ([2]; pH 6, aqueous buffer)
0.00%: Total Impurities ([1]; 20 ± 2 °C/60 ± 5% RH, 2 Weeks) | Total Impurities ([1]; 20 ± 2 °C/60 ± 5% RH, 4 Weeks) | Total Impurities ([1]; 40 ± 2 °C/75 ± 5% RH, 2 Weeks) | Total Impurities ([1]; 40 ± 2 °C/75 ± 5% RH, 4 Weeks) | Total Impurities ([1]; Initial) | Total Impurity ([3]; pH 4.0 buffer, 20 ± 2 °C/60 ± 5% RH, 3 Days) | Total Impurity ([3]; pH 4.0 buffer, 40 ± 2 °C/75 ± 5% RH, 3 Days) | Total Impurity ([3]; pH 5.0 buffer, 20 ± 2 °C/60 ± 5% RH, 3 Days) | Total Impurity ([3]; pH 5.0 buffer, 40 ± 2 °C/75 ± 5% RH, 3 Days) | Total Impurity ([3]; pH 6.0 buffer, 20 ± 2 °C/60 ± 5% RH, 3 Days) | Total Impurity ([3]; pH 6.8 buffer, 40 ± 2 °C/75 ± 5% RH, 3 Days) | Total Impurity ([3]; pH 7.0 buffer, 20 ± 2 °C/60 ± 5% RH, 3 Days) | Total Impurity ([3]; pH 7.0 buffer, 40 ± 2 °C/75 ± 5% RH, 3 Days) | Total Impurity ([3]; pH 7.0 buffer, Initial) | Total Impurity ([3]; pH 8.0 buffer, 40 ± 2 °C/75 ± 5% RH, 3 Days) | Total Impurity ([3]; pH 9.0 buffer, 20 ± 2 °C/60 ± 5% RH, 3 Days) | Total Impurity ([3]; pH 9.0 buffer, 20 ± 2 °C/60 ± 5% RH, 7 Days) | Total Impurity ([3]; pH 9.0 buffer, 40 ± 2 °C/75 ± 5% RH, 3 Days) | Total Impurity ([3]; pH 9.0 buffer, Initial) | Total Impurity ([3]; pH 10.0 buffer, 20 ± 2 °C/60 ± 5% RH, 3 Days) | Total Impurity ([3]; pH 10.0 buffer, 40 ± 2 °C/75 ± 5% RH, 3 Days) | Total Impurity ([3]; pH 11.0 buffer, 20 ± 2 °C/60 ± 5% RH, 3 Days) | Total Impurity ([3]; pH 11.0 buffer, 40 ± 2 °C/75 ± 5% RH, 3 Days) | Total Impurity ([3]; pH 12.0 buffer, 20 ± 2 °C/60 ± 5% RH, 3 Days) | Total Impurity ([3]; pH 12.0 buffer, 40 ± 2 °C/75 ± 5% RH, 3 Days)
0.23%: Total Impurity ([3]; pH 2.0 buffer, 20 ± 2 °C/60 ± 5% RH, 7 Days)
0.04%: Total Impurity ([3]; pH 6.8 buffer, Initial) | Total Impurity ([3]; pH 11.0 buffer, 40 ± 2 °C/75 ± 5% RH, 7 Days) | Total Impurity ([3]; pH 11.0 buffer, Initial)
960 µg/mL: solubility thermodynamic at 12 h ([2]; pH 10, aqueous buffer)
3110 µg/mL: solubility thermodynamic at 12 h ([2]; pH 2, aqueous buffer) | solubility thermodynamic at 24 h ([2]; pH 2, aqueous buffer)
0.05%: Total Impurity ([3]; pH 6.0 buffer, Initial)
0.01%: Total Impurity ([3]; pH 1.2 buffer, 20 ± 2 °C/60 ± 5% RH, 3 Days) | Total Impurity ([3]; pH 4.0 buffer, 20 ± 2 °C/60 ± 5% RH, 7 Days) | Total Impurity ([3]; pH 6.0 buffer, 40 ± 2 °C/75 ± 5% RH, 3 Days) | Total Impurity ([3]; pH 6.8 buffer, 20 ± 2 °C/60 ± 5% RH, 3 Days) | Total Impurity ([3]; pH 8.0 buffer, 20 ± 2 °C/60 ± 5% RH, 3 Days)
1700 µg/mL: solubility thermodynamic at 12 h ([2]; pH 3, aqueous buffer) | solubility thermodynamic at 24 h ([2]; pH 3, aqueous buffer)
0.08%: Total Impurity ([3]; pH 2.0 buffer, 40 ± 2 °C/75 ± 5% RH, 3 Days) | Total Impurity ([3]; pH 3.0 buffer, 20 ± 2 °C/60 ± 5% RH, 3 Days) | Total Impurity ([3]; pH 3.0 buffer, Initial)
0.09%: Total Impurity ([3]; pH 1.2 buffer, 20 ± 2 °C/60 ± 5% RH, 7 Days)
